One test addresses T1, CDK8/CycC (Homo sapiens, UniProt P49336).
T1 construct: purchased Carna Biosciences
Briefly: CDK8 inhibitory activity (Kinase Tracer-236 / Eu-anti-GST fluorescence assay). It is filed as binding. On the set-up: Percent inhibition of CDK8 activity (%): concentration or dose not given beside the values. Particulars: for Percent inhibition of CDK8 activity (%): test compound concentration given as '1 1.1.1\4' [sic]. The method, then: (§1) The compound of the present invention was evaluated for its CDK8 inhibitory activity and CDK19 inhibitory activity by the following method. […] The primary diluted solution was dispensed in the amount of 2 μL/well to a 384-well plate, and then, a mixed solution of Eu^3+ Cryptate conjugated mouse monoclonal antibody anti-glutathione S-transferase (Cisbio) diluted 267-fold with an assay buffer and 60 nM Kinase Tracer-236 (Life technologies) was added thereto at 2 μL/well. […] After the addition, the plate was left standing at room temperature for 1 hour, and then, the fluorescence intensity (excitation wavelength 320 nm, fluorescence wavelength 615 nm, 665 nm, delay time 50 μsec) was measured using ann EnVision plate reader (PerkinElmer). The percent inhibition of CDK8 or CDK19 activity by the test compound can be calculated according to the following formula, wherein the fluorescence intensity of a reaction solution in the absence of compound is defined as the control, and the fluorescence intensity of a reaction solution in the presence of 10 μM of control compound is defined as the blank.

A further test concerns the target T2, CDC2L6/CycC (CDK19) (Homo sapiens, UniProt Q9BWU1).
T2 construct: purchased Carna Biosciences Inc
The experiment in a line: CDK19 inhibitory activity (Kinase Tracer-236 / Eu-anti-GST fluorescence assay). On the set-up: Percent inhibition of CDK19 activity (%): concentration or dose not given beside the values. In kind it is binding. Particulars: for Percent inhibition of CDK19 activity (%): test compound concentration given as '1 1.1.1\4' [sic]. The method, then: as §1

Test [1] has as its system human multiple myeloma RPMI8226 cells. The experiment in a line: Inhibitory activity against human multiple myeloma RPMI8226 cell growth (CellTiter-Glo). Particulars: 1 μM test compound, cultured for 8 days; for inhibition at 1 µM: Homo sapiens, RPMI-8226, 192 h, read-out: Percent inhibition of RPMI8226 cell growth (%). In kind it is cell-based. The method, then: The compound of the present invention was evaluated for its inhibitory activity against human multiple myeloma RPMI8226 cell growth by the following method.
A suspension of human multiple myeloma RPMI8226 cells (purchased from the Health Protection Agency) was inoculated at 40 μL (300 cells/well) to a 384-well plate and cultured at 37° C. for 1 day in a 5% CO2 incubator. After the culture, each test compound solution was added thereto at a test concentration of 1 μM using TECAN D300, and the cells were further cultured for 8 days. After the culture, CellTiter-Glo™ Luminescent Cell Viability Assay reagent (Promega) was added at 40 μL/well to a 384-well plate, and the amount of luminescence was measured using a luminometer. Inhibitory activity against human multiple myeloma RPMI8226 cell growth (percent inhibition (%)) of the test compound was calculated according to the following formula, which is based on the hypothesis that the amount of residual ATP reflects the number of cells. In this formula, 100% control represents the amount of luminescence from a well with only 0.1% DMSO added. Percent inhibition (%)=(1−(amount of luminescence of the test compound)÷(100% control))×100

T1 sequence (P49336 whole entry): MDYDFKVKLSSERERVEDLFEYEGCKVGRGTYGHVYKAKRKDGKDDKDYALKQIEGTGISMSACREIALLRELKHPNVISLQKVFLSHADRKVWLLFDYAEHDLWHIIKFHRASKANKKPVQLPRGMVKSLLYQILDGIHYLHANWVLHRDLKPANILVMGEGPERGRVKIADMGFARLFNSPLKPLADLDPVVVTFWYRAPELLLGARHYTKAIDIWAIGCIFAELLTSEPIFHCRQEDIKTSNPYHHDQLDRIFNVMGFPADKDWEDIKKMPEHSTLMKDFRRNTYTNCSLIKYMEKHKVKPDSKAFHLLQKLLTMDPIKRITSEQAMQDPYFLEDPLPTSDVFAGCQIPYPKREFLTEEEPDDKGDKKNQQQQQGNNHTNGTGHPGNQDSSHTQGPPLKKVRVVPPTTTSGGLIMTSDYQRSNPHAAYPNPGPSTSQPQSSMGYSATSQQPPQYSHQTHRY
T1 sequence (P24863 whole entry partner): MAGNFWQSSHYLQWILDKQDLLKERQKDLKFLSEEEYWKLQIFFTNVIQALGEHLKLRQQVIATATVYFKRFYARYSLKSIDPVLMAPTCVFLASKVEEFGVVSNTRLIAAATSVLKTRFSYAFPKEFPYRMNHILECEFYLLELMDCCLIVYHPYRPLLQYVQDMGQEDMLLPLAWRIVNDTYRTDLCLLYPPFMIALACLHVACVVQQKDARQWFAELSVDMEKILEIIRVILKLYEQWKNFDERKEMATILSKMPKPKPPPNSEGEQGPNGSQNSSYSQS
T2 sequence (Q9BWU1 whole entry): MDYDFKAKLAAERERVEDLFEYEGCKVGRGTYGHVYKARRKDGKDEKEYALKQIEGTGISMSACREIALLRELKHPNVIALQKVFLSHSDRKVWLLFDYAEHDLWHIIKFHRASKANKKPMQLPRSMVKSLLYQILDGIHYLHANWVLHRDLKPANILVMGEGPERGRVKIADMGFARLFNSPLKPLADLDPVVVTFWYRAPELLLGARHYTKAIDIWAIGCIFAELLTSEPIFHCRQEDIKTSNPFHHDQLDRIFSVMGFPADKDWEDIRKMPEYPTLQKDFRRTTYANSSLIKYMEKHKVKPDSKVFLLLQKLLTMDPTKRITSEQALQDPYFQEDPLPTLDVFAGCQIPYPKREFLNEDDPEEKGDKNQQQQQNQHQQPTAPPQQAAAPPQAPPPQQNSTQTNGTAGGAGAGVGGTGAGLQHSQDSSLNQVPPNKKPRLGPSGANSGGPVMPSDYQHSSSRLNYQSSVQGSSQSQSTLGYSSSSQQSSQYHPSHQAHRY
T2 sequence (P24863 whole entry partner): as the sequence (P24863 whole entry partner) above

Usually inhibition stands for the percentage by which the read-out fell short of the control. Consider `Cc1nc(NC(=O)C2(O)CC2)ccc1Oc1sc(C(N)=O)c2c1-c1sncc1CC2` [Example 31, 8-((6-(((1-Hydroxycyclopropyl)carbonyl)amino)-2-methylpyridin-3-yl)oxy)-4,5-dihydrothieno[3,4-g][1,2]benzothiazole-6-carboxamide], for which the “Percent inhibition of CDK8 activity (%)” value on CDK8/CycC worked out at 103%. On CDC2L6/CycC (CDK19), the “Percent inhibition of CDK19 activity (%)” value is reported as 101%. Moreover, in test [1], the inhibition at 1 µM was 59%.
In the same order, the values of `Cc1n[nH]c(C)c1Oc1sc(C(N)=O)c2c1-c1sncc1CC2` [Example 124, 8-((3,5-Dimethyl-1H-pyrazol-4-yl)oxy)-4,5-dihydrothieno[3,4-g][1,2] benzothiazole-6-carboxamide] are 105%, 101% and 70%.
In the same order, the values of `CS(=O)(=O)c1cc(Oc2sc(C(N)=O)c3c2-c2sncc2CC3)ccc1C#N` [Example 6, 8-(4-Cyano-3-(methylsulfonyl)phenoxy)-4,5-dihydrothieno[3,4-g][1,2]benzothiazole-6-carboxamide] are 89%, 84% and 46%.
In the same order, the values of `CC(C)(O)CNC(=O)c1ccc(Oc2sc(C(N)=O)c3c2-c2sncc2CC3)cn1` [Example 114, 8-((6-((2-Hydroxy-2-methylpropyl)carbamoyl)pyridin-3-yl)oxy)-4,5-dihydrothieno[3,4-g][1,2]benzothiazole-6-carboxamide] are 108%, 100% and 65%.
As for `COCCNC(=O)c1ccc(Oc2sc(C(N)=O)c3c2-c2sncc2CC3)cn1` [Example 138, 8-((6-((2-Methoxyethyl)carbamoyl)pyridin-3-yl)oxy)-4,5-dihydrothieno[3,4-g][1,2]benzothiazole-6-carboxamide fumaric acid (1:1)], the “Percent inhibition of CDK8 activity (%)” value on CDK8/CycC is on record as 103%. Further, on CDC2L6/CycC (CDK19), the “Percent inhibition of CDK19 activity (%)” value is given as 100%. For the same compound, the “Percent inhibition of RPMI8226 cell growth (%)” value in test [1] (1 µM) was found to be 69%.
In the case of `NC(=O)c1sc(Oc2ccc(NC(=O)C3CC3)nc2)c2c1CCc1cnsc1-2` [Example 130, 8-((6-((Cyclopropylcarbonyl)amino)pyridin-3-yl)oxy)-4,5-dihydrothieno [3,4-g][1,2]benzothiazole-6-carboxamide], the “Percent inhibition of CDK8 activity (%)” value at CDK8/CycC is reported as 101%. Further, the “Percent inhibition of CDK19 activity (%)” value on CDC2L6/CycC (CDK19) amounted to 99%. In addition, the inhibition at 1 µM in test [1] was determined as 66%.
On the same counts, the results for `NC(=O)c1sc(Oc2ccc(C(=O)N3CC[C@H](O)C3)nc2)c2c1CCc1cnsc1-2` [Example 110, 8-((6-(((3S)-3-Hydroxypyrrolidin-1-yl)carbonyl)pyridin-3-yl)oxy)-4,5-dihydrothieno[3,4-g][1,2]benzothiazole-6-carboxamide] are 103%, 98% and 63%.
On the same counts, the results for `Cc1nc(N(C)C(=O)C2CC2)ccc1Oc1sc(C(N)=O)c2c1-c1sncc1CC2` [Example 26, 8-((6-((Cyclopropylcarbonyl)(methyl)amino)-2-methylpyridin-3-yl)oxy)-4,5-dihydrothieno[3,4-g][1,2]benzothiazole-6-carboxamide] are 103%, 102% and 66%.
In the same order, the values of `CC(=O)N(C)c1ccc(Oc2sc(C(N)=O)c3c2-c2sncc2CC3)c(C)n1` [Example 28, 8-((6-(Acetyl(methyl)amino)-2-methylpyridin-3-yl)oxy)-4,5-dihydrothieno[3,4-g][1,2]benzothiazole-6-carboxamide] are 101%, 99% and 63%.
Take `Cc1ncccc1Oc1sc(C(=O)Nc2ncco2)c2c1-c1sncc1CC2` [Example 37, 8-((2-Methylpyridin-3-yl)oxy)-N-(1,3-oxazol-2-yl)-4,5-dihydrothieno[3,4-g][1,2]benzothiazole-6-carboxamide]: the “Percent inhibition of CDK8 activity (%)” value on CDK8/CycC stood at 95%. For the same compound, the “Percent inhibition of CDK19 activity (%)” value at CDC2L6/CycC (CDK19) is 94%. Besides, in test [1], the inhibition at 1 µM amounted to 73%.
Take `COCCN(C)C(=O)c1ccc(Oc2sc(C(N)=O)c3c2-c2sncc2CC3)cn1` [Example 101, 8-((6-((2-Methoxyethyl)(methyl)carbamoyl)pyridin-3-yl)oxy)-4,5-dihydrothieno[3,4-g][1,2]benzothiazole-6-carboxamide]: at CDK8/CycC, the “Percent inhibition of CDK8 activity (%)” value stood at 106%. At CDC2L6/CycC (CDK19), the “Percent inhibition of CDK19 activity (%)” value worked out at 95%. Further, the inhibition at 1 µM in test [1] was determined as 65%.
As for `NC(=O)c1sc(Oc2ccc(C(=O)N3CC[C@@H](O)C3)nc2)c2c1CCc1cnsc1-2` [Example 109, 8-((6-(((3R)-3-Hydroxypyrrolidin-1-yl)carbonyl)pyridin-3-yl)oxy)-4,5-dihydrothieno[3,4-g][1,2]benzothiazole-6-carboxamide], the “Percent inhibition of CDK8 activity (%)” value at CDK8/CycC came out at 105%. The “Percent inhibition of CDK19 activity (%)” value on CDC2L6/CycC (CDK19) was found to be 98%. Also, the inhibition at 1 µM in test [1] amounted to 63%.
In the same order, the values of `NC(=O)c1sc(Oc2ccc(C(F)(F)F)cc2)c2c1CCc1cnsc1-2` [Example 90] are 102%, 102% and 55%.
On the same counts, the results for `CCOCCNC(=O)c1ccc(Oc2sc(C(N)=O)c3c2-c2sncc2CC3)cc1` [Example 120] are 104%, 99% and 74%.
On the same counts, the results for `CC(=O)Nc1ccc(Oc2sc(C(N)=O)c3c2-c2sncc2CC3)cn1` [Example 94, 8-((6-Acetamidopyridin-3-yl)oxy)-4,5-dihydrothieno[3,4-g][1,2]benzothiazole-6-carboxamide] are 90%, 97% and 63%.
Turning to `COCC(=O)Nc1ccc(Oc2sc(C(N)=O)c3c2-c2sncc2CC3)c(C)n1` [Example 127, 8-((6-((Methoxyacetyl)amino)-2-methylpyridin-3-yl)oxy)-4,5-dihydrothieno[3,4-g][1,2]benzothiazole-6-carboxamide], the “Percent inhibition of CDK8 activity (%)” value at CDK8/CycC is listed as 106%. Also, the “Percent inhibition of CDK19 activity (%)” value at CDC2L6/CycC (CDK19) was found to be 100%. Moreover, the inhibition at 1 µM in test [1] was found to be 65%.
Turning to `Cc1ncccc1Oc1sc(C#N)c2c1-c1sncc1CC2` [Example 40, 8-((2-Methylpyridin-3-yl)oxy)-4,5-dihydrothieno[3,4-g][1,2]benzothiazole-6-carbonitrile], the “Percent inhibition of CDK8 activity (%)” value at CDK8/CycC is 69%. In addition, the “Percent inhibition of CDK19 activity (%)” value at CDC2L6/CycC (CDK19) is recorded as 58%. The inhibition at 1 µM in test [1] is 61%.
On the same counts, the results for `NC(=O)c1sc(Oc2ccc(N)nc2)c2c1CCc1cnsc1-2` [Example 93, 8-((6-Aminopyridin-3-yl)oxy)-4,5-dihydrothieno[3,4-g][1,2]benzothiazole-6-carboxamide] are 87%, 96% and 63%.
On to `Cc1nc(C(=O)N(C)C)ccc1Oc1sc(C(N)=O)c2c1-c1sncc1CC2` [Example 116, 8-((6-(Dimethylcarbamoyl)-2-methylpyridin-3-yl)oxy)-4,5-dihydrothieno[3,4-g][1,2]benzothiazole-6-carboxamide], for which the “Percent inhibition of CDK8 activity (%)” value at CDK8/CycC is 103%. The “Percent inhibition of CDK19 activity (%)” value on CDC2L6/CycC (CDK19) is listed as 99%. The inhibition at 1 µM in test [1] was determined as 61%.
On the same counts, the results for `CCC(=O)Nc1ccc(Oc2sc(C(N)=O)c3c2-c2sncc2CC3)c(C)n1` [Example 133, 8-((2-Methyl-6-(propionylamino)pyridin-3-yl)oxy)-4,5-dihydrothieno [3,4-g][1,2]benzothiazole-6-carboxamide] are 110%, 101% and 63%.
What is called IC50 is the concentration that inhibits the measured activity by half. As for `Oc1ccc(-c2n[nH]cc2-c2ccc3c(c2)OCCO3)c(O)c1` [control compound, 4-(4-(2,3-dihydro-1,4-benzodioxin-6-yl)-1H-pyrazol-3-yl)benzene-1,3-diol, reference compound], the 50% inhibitory concentration (IC50) on CDK8/CycC (control compound, for reference, read-out: CDK8 inhibition IC50) was 120 nM; at CDC2L6/CycC (CDK19) (control compound, for reference, read-out: CDK19 inhibition IC50) it was 130 nM.

The values are drawn from patent publication US9745325B2, “Fused heterocyclic compound” (Takeda Pharmaceutical Company Limited, priority 2014, dated 2017).
